The results in this text go back to article PMC6407578, “Synthesis and biological evaluation of ursolic acid derivatives bearing triazole moieties as potential anti-Toxoplasma gondii agents” (Journal of Enzyme Inhibition and Medicinal Chemistry, 2019).

SMILES strings stand for the structures.

The subject of one data set is HeLa cells. Put plainly: Cytotoxicity on HeLa host cells (MTT). It counts as cell-based. The following applies: Homo sapiens, HeLa, median toxicity dose, cytotoxicity against host cells, 24 h. The method, then: (§1) The cytotoxicity of compounds was determined using the previously published thiazolyl blue-based colorimetric method. For this, HeLa cells were used as host cells and their ability to resist invasion by T. gondii RH strain tachyzoites in vitro was checked. The cells were plated in 96-well plates at an appropriate density to ensure exponential growth throughout the experimental period (3 × 10^3 cells per well) and then allowed to adhere for 24 h at 37 °C. The cells were infected with T. gondii (1.5 × 10^4 tachyzoites/well), followed by incubation for 24 h. All compounds were prepared in dimethyl sulfoxide (DMSO) at a stock concentration of 100 mM. Serial dilutions (1–1000 μM) of each compound were tested. Spiramycin was used as a positive control. After 24 h of incubation, 10 μL of MTT solution were added to each well and cells were incubated for a further 2 h. The optical density (OD) was read on a microplate reader at a wavelength of 492 nm. The IC50 in HeLa cells, IC50 in T. gondii and selectivity index were calculated using Microsoft Excel.

Data set [1] relates to T. gondii RH strain tachyzoites. Put plainly: In vitro T. gondii growth inhibition in HeLa host cells (MTT). The conditions noted are these: for IC50: Toxoplasma gondii, median inhibitory concentration, tachyzoite inhibition, HeLa host cells, 24 h; for SI (selectivity index): IC50 in HeLa cells/IC50 in T. gondii. Format: cell-based, Toxoplasma gondii. The method, then:
as §1

Compound `C[C@H]1[C@H](C)CC[C@]2(C(=O)OCC(=O)NCc3cn(-c4ccccc4)nn3)CC[C@]3(C)C(=CC[C@@H]4[C@@]5(C)CCC(O)C(C)(C)[C@@H]5CC[C@]43C)[C@H]12` (stereo partly drawn) [2a, (1S,2R,4aS,6aS,6bR,8aR,12aR,12bR,14bS)-2-oxo-2-((1-phenyl-1H-1,2,3-triazol-4-yl)methylamino)ethyl-10-hydroxy-1,2,6a,6b,9,9,12a-heptamethyl-1,2,3,4,4a,5,6,6a,6b,7,8,8a,9,10,11,12,12a,12b,13,14b-icosahydropicene-4a-carboxylate] showed a melting point of 170 to 172 °C. In the data set with HeLa cells, it took 837 µM to reach half-maximal inhibition (IC50). For the same compound, the IC50 in data set [1] is over 1000 µM.

As for `C[C@H]1[C@H](C)CC[C@]2(C(=O)O)CC[C@]3(C)C(=CC[C@@H]4[C@@]5(C)C/C(=C\c6cn(-c7ccccc7Br)nn6)C(=O)C(C)(C)[C@@H]5CC[C@]43C)[C@H]12` [1g, (1S,2R,4aS,6aS,6bR,8aR,12aR,12bR,14bS,E)-11-((1–(2-bromophenyl)-1H-1,2,3-triazol-4-yl)methylene)-1,2,6a,6b,9,9,12a-heptamethyl-10-oxo-1,3,4,5,6,6a,6b,7,8,8a,9,10,11,12,12a,12b,13,14b-octadecahydropicene-4a(2H)-carboxylic acid], in the data set with HeLa cells, inhibition was half-maximal at 240 µM (IC50). In data set [1], the “SI (selectivity index)” value came out at 0.80 and the IC50 amounted to 302 µM.

Turning to `COc1cc(-n2cc(/C=C3\C[C@]4(C)[C@H]5CC=C6[C@@H]7[C@@H](C)[C@H](C)CC[C@]7(C(=O)O)CC[C@@]6(C)[C@]5(C)CC[C@H]4C(C)(C)C3=O)nn2)cc(OC)c1OC` [1j, (1S,2R,4aS,6aS,6bR,8aR,12aR,12bR,14bS,E)-1,2,6a,6b,9,9,12a-heptamethyl-10-oxo-11-((1–(3,4,5-trimethoxyphenyl)-1H-1,2,3-triazol-4-yl)methylene)-1,3,4,5,6,6a,6b,7,8,8a,9,10,11,12,12a,12b,13,14b-octadecahydropicene-4a(2H)-carboxylic acid], the figures for the IC50 (with HeLa cells; in data set [1]) were 354 µM and 301 µM, respectively. In data set [1], the “SI (selectivity index)” value was 1.17.

Consider `C[C@H]1[C@H](C)CC[C@]2(C(=O)OCC(=O)NCc3cn(-c4ccc(Cl)cc4)nn3)CC[C@]3(C)C(=CC[C@@H]4[C@@]5(C)CCC(O)C(C)(C)[C@@H]5CC[C@]43C)[C@H]12` (stereo partly drawn) [2b, (1S,2R,4aS,6aS,6bR,8aR,12aR,12bR,14bS)-2-((1–(4-chlorophenyl)-1H-1,2,3-triazol-4-yl)methylamino)-2-oxoethyl-10-hydroxy-1,2,6a,6b,9,9,12a-heptamethyl-1,2,3,4,4a,5,6,6a,6b,7,8,8a,9,10,11,12,12a,12b,13,14b-icosahydropicene-4a-carboxylate], for which the melting point was in the range of 176 to 178 °C. The compound also displayed a half-maximal inhibitory concentration (IC50) with HeLa cells of 329 µM. This compound registered an IC50 in data set [1] of over 1000 µM.

`C[C@H]1[C@H](C)CC[C@]2(C(=O)OCC(=O)NCc3cn(-c4ccc(Cl)c(Cl)c4)nn3)CC[C@]3(C)C(=CC[C@@H]4[C@@]5(C)CCC(O)C(C)(C)[C@@H]5CC[C@]43C)[C@H]12` (stereo partly drawn) [2e, (1S,2R,4aS,6aS,6bR,8aR,12aR,12bR,14bS)-2-((1–(3,4-dichlorophenyl)-1H-1,2,3-triazol-4-yl)methylamino)-2-oxoethyl-10-hydroxy-1,2,6a,6b,9,9,12a-heptamethyl-1,2,3,4,4a,5,6,6a,6b,7,8,8a,9,10,11,12,12a,12b,13,14b-icosahydropicene-4a-carboxylate] registered a melting point of 203 to 204 °C. In addition, the IC50 in the data set with HeLa cells is over 1000 µM. This compound also showed an IC50 in data set [1] of over 1000 µM.

`C[C@H]1[C@H](C)CC[C@]2(C(=O)OCCn3cnnc3-c3ccc(Cl)cc3)CC[C@]3(C)C(=CC[C@@H]4[C@@]5(C)CCC(O)C(C)(C)[C@@H]5CC[C@]43C)[C@H]12` (stereo partly drawn) [3b, 2 –(3-(4-chlorophenyl)-4H-1,2,4-triazol-4-yl)ethyl(1S,2R,4aS,6aS,6bR,8aR,12aR,12bR,14bS)-10-hydroxy-1,2,6a,6b,9,9,12a-heptamethyl-1,3,4,5,6,6a,6b,7,8,8a,9,10,11,12,12a,12b,13,14b-octadecahydropicene-4a(2H)-carboxylate] yielded a melting point of 245 to 246 °C. 2.4 µM corresponded to half-maximal inhibition in the data set with HeLa cells (IC50). Further, in data set [1], the “SI (selectivity index)” value stood at 0.36 and the IC50 is 6.7 µM.

Turning to `Cc1ccc(-n2cc(CNC(=O)COC(=O)[C@]34CC[C@@H](C)[C@H](C)[C@H]3C3=CC[C@@H]5[C@@]6(C)CCC(O)C(C)(C)[C@@H]6CC[C@@]5(C)[C@]3(C)CC4)nn2)cc1` (stereo partly drawn) [2d, (1S,2R,4aS,6aS,6bR,8aR,12aR,12bR,14bS)-2-oxo-2-((1-p-tolyl-1H-1,2,3-triazol-4-yl)methylamino)ethyl-10-hydroxy-1,2,6a,6b,9,9,12a-heptamethyl-1,2,3,4,4a,5,6,6a,6b,7,8,8a,9,10,11,12,12a,12b,13,14b-icosahydropicene-4a-carboxylate], the melting point lay within 186 to 187 °C. The compound also gave an IC50 with HeLa cells of over 1000 µM. This compound also registered a half-maximal inhibitory concentration (IC50) in data set [1] of over 1000 µM.

On to `C[C@H]1[C@H](C)CC[C@]2(C(=O)O)CC[C@]3(C)C(=CC[C@@H]4[C@@]5(C)C/C(=C\c6cn(-c7ccccc7F)nn6)C(=O)C(C)(C)[C@@H]5CC[C@]43C)[C@H]12` [1b, (1S,2R,4aS,6aS,6bR,8aR,12aR,12bR,14bS,E)-11-((1–(2-fluorophenyl)-1H-1,2,3-triazol-4-yl)methylene)-1,2,6a,6b,9,9,12a-heptamethyl-10-oxo-1,3,4,5,6,6a,6b,7,8,8a,9,10,11,12,12a,12b,13,14b-octadecahydropicene-4a(2H)-carboxylic acid], for which the melting point was over 250 °C. Besides, in the data set with HeLa cells, the half-inhibitory concentration (IC50) stood at 420 µM. Moreover, in data set [1], the “SI (selectivity index)” value is 0.59 and the IC50 was 712 µM.

Regarding `C[C@H]1[C@H](C)CC[C@]2(C(=O)O)CC[C@]3(C)C(=CC[C@@H]4[C@@]5(C)C/C(=C\c6cn(-c7ccc(Cl)c(Cl)c7)nn6)C(=O)C(C)(C)[C@@H]5CC[C@]43C)[C@H]12` [1f, (1S,2R,4aS,6aS,6bR,8aR,12aR,12bR,14bS,E)-11-((1–(3,4-dichlorophenyl)-1H-1,2,3-triazol-4-yl)methylene)-1,2,6a,6b,9,9,12a-heptamethyl-10-oxo-1,3,4,5,6,6a,6b,7,8,8a,9,10,11,12,12a,12b,13,14b-octadecahydropicene-4a(2H)-carboxylic acid], the melting point is over 250 °C. This compound yielded an IC50 with HeLa cells of 408 µM. Further, in data set [1], the “SI (selectivity index)” value is 0.88 and the IC50 was found to be 462 µM.

The compound `C[C@H]1[C@H](C)CC[C@]2(C(=O)OCCn3cnnc3-c3ccc(F)cc3)CC[C@]3(C)C(=CC[C@@H]4[C@@]5(C)CCC(O)C(C)(C)[C@@H]5CC[C@]43C)[C@H]12` (stereo partly drawn) [3c, 2 –(3-(4-fluorophenyl)-4H-1,2,4-triazol-4-yl)ethyl(1S,2R,4aS,6aS,6bR,8aR,12aR,12bR,14bS)-10-hydroxy-1,2,6a,6b,9,9,12a-heptamethyl-1,3,4,5,6,6a,6b,7,8,8a,9,10,11,12,12a,12b,13,14b-octadecahydropicene-4a(2H)-carboxylate] came in with an IC50 in the data set with HeLa cells of 88.2 µM. In addition, in data set [1], the “SI (selectivity index)” value is recorded as 1.44 and the half-inhibitory concentration (IC50) is 61.4 µM.

In the case of `C[C@H]1[C@H](C)CC[C@]2(C(=O)O)CC[C@]3(C)C(=CC[C@@H]4[C@@]5(C)C/C(=C\c6cn(-c7ccc(F)cc7)nn6)C(=O)C(C)(C)[C@@H]5CC[C@]43C)[C@H]12` [1d, (1S,2R,4aS,6aS,6bR,8aR,12aR,12bR,14bS,E)-11-((1–(4-fluorophenyl)-1H-1,2,3-triazol-4-yl)methylene)-1,2,6a,6b,9,9,12a-heptamethyl-10-oxo-1,3,4,5,6,6a,6b,7,8,8a,9,10,11,12,12a,12b,13,14b-octadecahydropicene-4a(2H)-carboxylic acid], the melting point was over 250 °C. The IC50 with HeLa cells was over 1000 µM. This compound also registered an IC50 in data set [1] of over 1000 µM.

On to `C[C@H]1[C@H](C)CC[C@]2(C(=O)OCCn3cnnc3-c3ccccc3)CC[C@]3(C)C(=CC[C@@H]4[C@@]5(C)CCC(O)C(C)(C)[C@@H]5CC[C@]43C)[C@H]12` (stereo partly drawn) [3a, 2 –(3-phenyl-4H-1,2,4-triazol-4-yl)ethyl(1S,2R,4aS,6aS,6bR,8aR,12aR,12bR,14bS)-10-hydroxy-1,2,6a,6b,9,9,12a-heptamethyl-1,3,4,5,6,6a,6b,7,8,8a,9,10,11,12,12a,12b,13,14b-octadecahydropicene-4a(2H)-carboxylate], for which the IC50 turned out to be 102 µM in the data set with HeLa cells and 88 µM in data set [1]. For the same compound, the “SI (selectivity index)” value in data set [1] came to 1.15.

With `C[C@H]1[C@H](C)CC[C@]2(C(=O)O)CC[C@]3(C)C(=CC[C@@H]4[C@@]5(C)C/C(=C\c6cn(-c7ccccc7I)nn6)C(=O)C(C)(C)[C@@H]5CC[C@]43C)[C@H]12` [1h, (1S,2R,4aS,6aS,6bR,8aR,12aR,12bR,14bS,E)-11-((1–(2-iodophenyl)-1H-1,2,3-triazol-4-yl)methylene)-1,2,6a,6b,9,9,12a-heptamethyl-10-oxo-1,3,4,5,6,6a,6b,7,8,8a,9,10,11,12,12a,12b,13,14b-octadecahydropicene-4a(2H)-carboxylic acid], the results for the concentration for half-maximal inhibition (IC50) (in the data set with HeLa cells; in data set [1]) were 230 µM and 274 µM, respectively. For the same compound, in data set [1], the “SI (selectivity index)” value is reported as 0.84.
